Experimental data from patent publication US9717727B2, “Methods of treating and preventing leukemia and other cancers of the blood and bone” (The Trustees of Columbia University in the City of New York, priority 2011, dated 2017).

Legend:
[1] = tested on: EL4 cells; assay: Injection of EL4 cells pre-treated with LP-533401 or serotonin into syngeneic mice (Example 13); type: in vivo; settings: cells treated before injection; LP-533401 0.1 to 1-fold serum concentration, serotonin 25 to 100 μM
Method: EL4 cells and WEH-3B cells, as described in Example 2, were treated with either LP-533401 or serotonin LP-533401 treatments were performed at 0.1 to 1-fold the amount equivalent to the LP-533401 serum concentration in mice treated with this compound. Serotonin was given at concentrations ranging from 25 to 100 μM, doses at which it affects the proliferation of cells expressing serotonin receptors (Kode et al. (2012); Yadav et al. (2008) Serafeim et al. (2003)).
EL4 cells treated with LP-533401 or serotonin were then injected into syngeneic mice as described in Example 2 to monitor leukemia engraftment, as commonly described for evaluating potential direct effects of compounds on leukemia cells (Moellering et al. (2009)).

[2] = tested on: hematopoietic compartment; assay: Flow cytometry of hematopoietic cell populations in bone marrow (Example 11); type: in vivo, mice
Method: Freshly isolated bone marrow cells or spleen cells were resuspended in flow-staining buffer (PBS plus 2% FBS) and the primary conjugated antibodies were added. After 30 minutes incubation at 4° C., the cells were then washed twice before flow cytometry analysis. The following antibodies conjugated with fluorescein isothiocyanate (FITC), Allophycocyanin (APC) phycoerythrin (PE), PE-Cy7, APC-CY7, Pacific Blue, and Alexa 700 were used: Lineage cocktail (B220, CD19, IL-7R chain, CD3, DX5, Gr-1, Ter119, CD71 and CD41), B220 (6B2), CD19 (1D3), IgM (II/41), CD3 (KT31.1), CD4 (GK1.5), CD8 (53-6.7), Gr-1 (8C5), Mac1/CD11b (M1/70), Ter119, CD71 (C2), c-Kit (2B8), Sca-1 (E13-161-7), CD34 (RAM34), FcRII/III (2.4G2) or CD135/Flt-3 (all from Becton Dickinson, San Diego, Calif.).
The cell cycle analysis of LSK cells was determined by staining for 30 min at 37° C. with Hoechst 33342 (Molecular Probes) and pyronin Y (Sigma). Seven-color flow cytometry acquisition was performed using a LSR II flow cytometer (Becton Dickinson) and analysis using FLO-JO software (Treestar, Inc). Cells were gated for size, shape and granularity using forward and side scatter parameters. The positive populations were identified as cells that expressed specific levels of fluorescence activity above the nonspecific auto fluorescence of the isotype control. Nonspecific binding was reduced by preincubation with unconjugated anti-FcRII/III (2.4G2). For Flow sorting EL4-GFP-Luc cells were resuspended in flow staining buffer, and flow sorting was performed using FACSAria (BD). Sorted GFP positive cells were then subsequently cultured for 12 hours and injected into the mice.
The methods used in Example 8 to measure the various cell types were used.
Mice treated as described in Example 9 were examined.

Compound: Nc1nc(OC(c2ccc(-c3cccc(F)c3)cc2)C(F)(F)F)cc(-c2ccc(C[C@H](N)C(=O)O)cc2)n1 (some centres unmarked) [LP-533401]
- leukemia outcome (burden and lethality) after injection of pre-treated EL4 cells [1]: neither of the two treatments altered leukemia outcome
- numbers of LSK FLT3+ cells ([2]; healthy and leukemic mice): reduced the numbers
- B-lymphopoiesis ([2]; leukemic animals): did not affect
- GMP and CMP populations ([2]; leukemic mice): further suppressed their frequencies
- LSK FLT3+ lymphoid progenitor cell subset (percentage) ([2]; leukemic mice): not affected
- MEP subsets ([2]; leukemic mice): not affected
- TER119+ erythroid progenitor cells ([2]; leukemic mice): increased
- increase in CD3+ cells ([2]; leukemic mice): prevented the increase
- increase in CD11b+GR1+ myeloid cells ([2]; leukemic mice): limited the increase
- leukemia-induced increase of LSK cells in the bone marrow ([2]; leukemic mice): hampered
- leukemia-reduced total bone marrow cellularity ([2]; leukemic mice): not altered
- CMPs and MEPs ([2]; non-leukemic mice): not affected
- GMPs and more mature myeloid cells ([2]; non-leukemic mice): decreased
- LSK cells in the bone marrow compared to wild-type ([2]; non-leukemic mice): decrease
- Ter119+ erythroid cells ([2]; non-leukemic mice): increased
- lymphoid lineage, including B and T cells ([2]; non-leukemic mice): no effect
- total bone marrow cellularity ([2]; non-leukemic mice): did not affect
